Measurements reported in patent US11673861B2, “Perfluorinated 1-alkoxypropenes, compositions, and methods and apparatuses for using same” (priority 2017, dated 2023).

How the values were obtained:
[1] = Dielectric constant, ASTM D150-11; type: physicochemical
Experimental: (§1) Dielectric breakdown strength and dielectric constant were measured for PE-1, PE-2, CE-1 to CE-4. The dielectric constants presented in Table 7, below, were measured using the broadband Novocontrol Dielectric Spectrometer per ASTM D150-11. The dielectric breakdown strengths presented in Table 7 were measured according to ASTM D877-13, Procedure A, with the following modification: spacing between the electrodes was 2.54 mm and rate of rise was 500 V/sec.

[2] = Dielectric breakdown strength, ASTM D877-13 Procedure A; type: physicochemical; details: electrode spacing 2.54 mm, rate of rise 500 V/sec
Experimental: as §1

rats = experiment: Toxicity screening study in rats, 4 h inhalation LC-50; type: in vivo
Experimental: MA-3 (50 g, 160 mmol) was charged to a 3-neck flask equipped with a water-cooled condenser and magnetic stir bar. SbF5 was then added dropwise to the stirring MA-3 and a large exotherm was observed. The resultant reaction mixture was allowed to stir at room temperature for 1 h. GC-FID analysis of the reaction mixture indicated complete consumption of the MA-3 starting material. Water was then added to the mixture with stirring. The fluorous phase was collected and distilled by concentric tube distillation (59° C., 740 mmHg, 98.7 kPa) affording the desired MP-3 (41.2 g, 82% yield) as a colorless liquid. Both E- and Z-isomers were obtained as a mixture. […] The structure was confirmed by GC-MS and ^19F NMR analyses to be that of the desired product.

[3] = Boiling point, ASTM D1120-94; type: physicochemical; details: temperature at 760 mmHg
Experimental: Vapor Pressure was measured using the stirred-flask ebulliometer method described in ASTM E1719-97 “Vapor Pressure Measurement by Ebulliometry.” This method is also referred to as “Dynamic Reflux.” The boiling point was measured using ASTM D1120-94 “Standard Test Method for Boiling Point of Engine Coolants.” The method used a 50-mL glass round-bottom flask. Vacuum was measured and controlled using a vacuum controller available from J-KEM Scientific, Inc., St. Louis, Mo., USA. The pressure transducer was calibrated on the day of measurement by comparison with full vacuum and with an electronic barometer located in the same laboratory. The procedure was carried out by slowly heating the material, then applying vacuum until boiling occurred and a steady dropwise reflux rate was established. Pot temperature and pressure reading were recorded, then the vacuum controller was set for a higher absolute pressure and the material was heated further until a new reflux point was established. The pressure level was raised in increments until the vapor pressure curve was obtained up to the atmospheric boiling point.
The boiling point of PE-1 is 60.1° C., which is the temperature at 760 mmHg. The boiling point of PE-2 is 88.1° C., which is the temperature at 760 mmHg.

[4] = Pour point, determined visually; type: physicochemical
Experimental: The useful liquid range of a perfluorinated 1-alkoxypropene compound of the present disclosure is between its pour point and its boiling point. A pour point is the lowest temperature at which the compound is still able to be poured. The pour point can be determined, for example, by ASTM D97-16 “Standard Test Method for Pour Point of Petroleum Products.” In one embodiment, the compounds of the present disclosure have a pour point of less than −100° C., less than −120° C., less than −130° C., or less than −140° C. Pour Point can be measured by placing a sealed glass vial containing 3 mL of the fluid into a refrigerated bath, adjusting temperature incrementally and checking for pouring. Pouring is defined as visible movement of the material during a five second count. This criterion is specified in ASTM D97-16.
One to two milliliters of the sample were placed in a vial and cooled in a bath until it solidified. The sample was then allowed to warm slowly in the bath and observed every 3-5° C.

[5] = Thermal stability with absorbents, GC-FID purity; type: physicochemical
Experimental: The thermal stability was measured by charging 1.0 g of Preparatory Example 2 into glass vials and then adding 0.10 g of absorbent. The samples were stirred for 24 h at 50° C. and then analyzed by GC-FID for decomposition and purity changes.

| Structure (SMILES) | Dielectric Constant (measured at 1 kHz) [1] | Dielectric Breakdown Voltage [2] [kV] | 4 h inhalation LC-50 (rats) | Boiling point [3] [°C] | Pour point [4] [°C] | Purity (%) ([5]; 4 Angstrom Molecular Sieves, 24 h at 50° C.) | Purity (%) ([5]; Activated Carbon, 24 h at 50° C.) | Purity (%) ([5]; Basic Alumina, 24 h at 50° C.) | Purity (%) ([5]; K2CO3, 24 h at 50° C.) | Purity (%) ([5]; No Absorbent, 24 h at 50° C.) | Purity (%) ([5]; Silica Gel, 24 h at 50° C.) |
| --- | --- | --- | --- | --- | --- | --- | --- | --- | --- | --- | --- |
| FC(F)=C(F)C(F)(F)OC(F)(F)C(F)(F)C(F)(F)F [MA-3, 1,1,2,3,3-pentafluoro-3-(perfluoropropoxy)prop-1-ene, reference compound] | 2.37 | 30.7 |  |  |  |  |  |  |  |  |  |
| FC(F)=C(F)C(F)(F)OC(F)(F)C(F)(F)C(F)(F)OC(F)(F)F [MA-31, 1,1,2,3,3-Pentafluoro-3-(1,1,2,2,3,3-hexafluoro-3-(trifluoromethoxy)propoxy)prop-1-ene, reference compound] | 2.37 | 39.4 |  |  |  |  |  |  |  |  |  |
| FC(OC(F)(F)C(F)(F)C(F)(F)F)=C(F)C(F)(F)F [PE-1, 1,2,3,3,3-pentafluoro-1-(perfluoropropoxy)prop-1-ene] | 2.04 | 41.7 | greater than 10,000 ppm | 60.1 | −145 |  |  |  |  |  |  |
| FC(OC(F)(F)C(F)(F)C(F)(F)OC(F)(F)F)=C(F)C(F)(F)F [PE-2, 1,2,3,3,3-pentafluoro-1-(1,1,2,2,3,3-hexafluoro-3-(trifluoromethoxy)propoxy)prop-1-ene] | 2.04 | >60 |  | 88.1 | −140 | 99.5 | 99.5 | 99.5 | 99.3 | 99.5 | 99.4 |
